The results in this text go back to US4451650A, “Pyrido[4,3-b][1,4]oxazines and pyrido[4,3-b][1,4]thiazines” (Southern Research Institute, priority 1982, dated 1984).

Experiment [1] deals with lymphoid leukemia L1210 cells. The experiment in a line: Mitotic index (fraction of cells in mitosis) of cultured lymphoid leukemia L1210 cells, 12 hours exposure. Type of experiment: cell-based. Particulars: Mus musculus, exposure period of 12 hours, read-out: L1210 MI0.5 (concentration of agent that causes a mitotic index of 0.5). As for the experimental part: ^b Concentration of agent that causes a mitotic index (fraction of
cells in mitosis divided by total cells) of 0.5 for cultured lymphoid
leukemia L1210 cells during an exposure period of 12 hours [Wheeler, G.
P., Bowden, B. J., Werline, J. A., Adamson, D. J., and Temple, C., Jr.,

Experiment [2] deals with lymphoid leukemia L1210 cells. The experiment in a line: Inhibition of proliferation of cultured lymphoid leukemia L1210 cells (48 hours). The experiment is classed as cell-based. Particulars: read-out: L1210 ID50 (concentration of agent that inhibits proliferation of cultured lymphoid leukemia L1210 cells to 50% control growth during 48 hours). As for the experimental part: ^a Concentration of agent that inhibits proliferation of cultured
lymphoid leukemia L1210 cells to 50% control growth during 48 hours
[Wheeler, G. P., Bowdon, B. J., Werline, J. A., Adamson, D. J., and
Temple, C., Jr., Cancer Research, 1982, 42, 791].

Experiment [3] deals with Lymphocytic leukemia P388. The experiment in a line: Increase in life span, lymphocytic leukemia P388, 10^6 tumor cell implant, i.p. Type of experiment: in vivo. Conditions: Mus musculus, P388, ip, schedule 1-5, read-out: P388 % ILS (increase in life span at the highest nontoxic dose). The source says:
^c Lymphocytic leukemia P388.
^d Increase in life span at the highest nontoxic dose.

Molecules are shown by their SMILES.

A word on the ILS: it is the gain in survival time of treated over control animals, in per cent. With `CCOC(=O)Nc1cc2c(c(N)n1)N=C(c1ccccc1)CO2` [a], the EC (mitotic index 0.5) in experiment [1] was found to be 0.56 µM. Also, the IC50 in experiment [2] is 225 nM. Besides, in experiment [3], the ILS at 100 mg/kg was determined as 44% and the ILS at 200 mg/kg was 80%.

For the compound `CCOC(=O)Nc1cc2c(c(N)n1)N=C(c1ccccc1)C(C)O2` (stereo not shown) [b], in experiment [1], the EC (mitotic index 0.5) stood at 0.49 µM. Moreover, the IC50 in experiment [2] stood at 110 nM. The ILS at 100 mg/kg in experiment [3] was 50%.

As to `CCOC(=O)Nc1cc2c(c(N)n1)N=C(c1ccccc1)C(c1ccccc1)O2` (stereo not shown) [c], the EC (mitotic index 0.5) in experiment [1] came to 3 µM. Also, the IC50 in experiment [2] came out at 880 nM. The ILS at 200 mg/kg in experiment [3] was determined as 2%.

As to `CCOC(=O)Nc1cc2c(c(N)n1)N=C1c3ccccc3CCC1O2` (stereo not shown) [d], the IC50 in experiment [2] was over 300 nM. Besides, the ILS at 300 mg/kg in experiment [3] stood at 32%.

Turning to `CCOC(=O)Nc1cc2oc(=O)c(-c3ccccc3)nc2c(N)n1` [e], the IC50 in experiment [2] was over 3000 nM. For the same compound, the increase in life span (ILS) at 300 mg/kg in experiment [3] amounted to 0%.

Take `CCOC(=O)Nc1cc2c(c(N)n1)N=C(c1cccc(OC)c1)CO2` [f]: the EC (mitotic index 0.5) in experiment [1] amounted to 0.1 µM. Moreover, the IC50 in experiment [2] worked out at 52 nM. Further, the ILS at 50 mg/kg in experiment [3] (50 mg/kg) worked out at 73%.

Regarding `CCOC(=O)Nc1cc2c(c(N)n1)N=C(c1cc(OC)c(OC)c(OC)c1)CO2` [g], in experiment [2], the IC50 was over 3000 nM. Further, in experiment [3], the ILS at 300 mg/kg came out at 0%.

On to `CCOC(=O)Nc1cc2c(c(N)n1)N=C(c1ccc(Cl)cc1)CO2` [h], for which the IC50 in experiment [2] was over 3000 nM. Also, the ILS at 300 mg/kg in experiment [3] amounted to 0%.

Regarding `CCOC(=O)Nc1cc2c(c(N)n1)N=C(c1ccc([N+](=O)[O-])cc1)CO2` [i], the IC50 in experiment [2] was over 3000 nM. In addition, in experiment [3], the ILS at 300 mg/kg was determined as 0%.

Consider `CCOC(=O)Nc1cc2c(c(N)n1)N=C(c1ccccc1)CS2` [j], for which the EC (mitotic index 0.5) in experiment [1] was 10 µM. Also, the IC50 in experiment [2] amounted to 6100 nM. Besides, the ILS at 300 mg/kg in experiment [3] turned out to be 0%.

`CCOC(=O)Nc1cc2c(c(N)n1)N=C(c1ccccc1)C(C)S2` (stereo not shown) [k]: the EC (mitotic index 0.5) in experiment [1] was 9.6 µM. Moreover, in experiment [2], the IC50 worked out at 1600 nM. Also, in experiment [3] (150 mg/kg), the ILS at 150 mg/kg stood at 10%.

As for `CCOC(=O)Nc1cc2c(c(N)n1)N=C(c1ccccc1)C(C)(C)S2` [l], in experiment [2], the IC50 was over 10000 nM.

As to `CCOC(=O)Nc1cc2c(c(N)n1)N=C(c1cccc(OC)c1)CS2` [m], in experiment [1], the EC (mitotic index 0.5) came to 2 µM. For the same compound, the IC50 in experiment [2] amounted to 530 nM. Also, the ILS at 75 mg/kg in experiment [3] (75 mg/kg) was determined as 3%.

Regarding `CCOC(=O)Nc1cc2c(c(N)n1)N=C(c1ccc(OC)cc1)CS2` [n], the EC (mitotic index 0.5) in experiment [1] came to 4.9 µM. In experiment [2], the IC50 was found to be 340 nM. Also, in experiment [3], the ILS at 300 mg/kg was 3%.

On to `CCOC(=O)Nc1cc2c(c(N)n1)N=C(c1ccc3ccccc3c1)CS2` [o], for which, in experiment [1], the EC (mitotic index 0.5) is 3 µM. The IC50 in experiment [2] stood at 580 nM. Further, the ILS at 300 mg/kg in experiment [3] was determined as 5%.

Regarding `CCOC(=O)Nc1cc2c(c(N=CN(C)C)n1)N=C(c1ccccc1)CO2` [p], the EC (mitotic index 0.5) in experiment [1] was 0.78 µM. Besides, in experiment [2], the IC50 was 310 nM.

Take `CCOC(=O)Nc1cc2c(c(NC(=O)CBr)n1)N=C(c1ccccc1)CO2` [q]: in experiment [1], the EC (mitotic index 0.5) is 11 µM. In experiment [2], the IC50 was found to be 2200 nM.
